system: rhythmic bladder contractions induced by substance P; assay: Inhibitory effect on the rhythmic bladder contractions induced by substance P in anesthetized rats; format: in vivo, rat; conditions: time during which frequency of rhythmic contraction was completely inhibited, 0.25 mg/kg of the compound, substance P infusion
Procedure: Inhibitory effect on the rhythmic bladder contractions induced by substance P in anesthetized rats
For the experiments, Sprague-Dawley female rats (9 to 12 weeks old) weighing between 200 to 300 g were used. After urethane anesthetization (subcutaneously administered with a dose of 1.2 g/kg), cannulae were placed in both right and left femoral veins. One intravenous catheter was used for administration of compounds, and the other was for the substance P (0.33 μg/kg/min) infusion. We also cannulated into ureter to pass urine. Polyethylene catheters were inserted into carotid artery for continuous monitoring of arterial blood pressure and heart rate. For continuous infusion, transurethral bladder catheter was inserted into the bladder through the urethra and tied in place by a ligature around the urethral orifice. One end of the catheter was attached to a pressure transducer in order to measure intravesical pressure. The other end of the catheter was used for infusion of saline into the bladder. After stabilization of blood pressure and heart rate and after the bladder was emptied, cystometry was performed by filling the bladder slowly with about 0.6 ml of saline. After about 10 minutes, intravenous infusion of substance P (0.33 μg/kg/min) was started for stabilization of the micturition reflex. Compounds were administered after stable rhythmic bladder contraction was obtained over 15 minutes. All compounds were dissolved or suspended in saline containing 0.5% Tween 80 for intravenous administration (0.1 ml/kg).
A 100% inhibition time (minute) of the selected compounds of the present invention is shown in the following Table 65 with a rank of A, B or C. These ranges are as mentioned below. A≧20>B≧10>C (minute)

Structure (SMILES) | 100% inhibition time range
O=C(Cc1nc(-c2ccc(F)cc2)oc1-c1ccsc1)NS(=O)(=O)c1cccnc1 [Preparation Example 371] | C (A≧20>B≧10>C (minute))
O=C(Cc1nc(-c2ccc(F)cc2)oc1-c1ccsc1)NCc1ccccn1 [Preparation Example 375] | C (A≧20>B≧10>C (minute))
O=C(Cc1nc(-c2ccc(F)cc2)oc1-c1ccsc1)Nc1cccnc1 [Preparation Example 376] | C (A≧20>B≧10>C (minute))
CS(=O)(=O)Nc1nc(-c2ccc(F)cc2)oc1-c1ccsc1.[Na] [Preparation Example 380, N-[2-(4-fluorophenyl)-5-(3-thienyl)oxazol-4-yl]methanesulfonamide sodium salt] | C (A≧20>B≧10>C (minute))
O=C(O)Cc1nc(-c2ccc(C(F)(F)F)cc2)oc1-c1cccs1 [Preparation Example 430] | B (A≧20>B≧10>C (minute))
Cc1ccccc1-c1nc(CC(=O)O)c(-c2cccs2)o1 [Preparation Example 433] | C (A≧20>B≧10>C (minute))
O=C(O)Cc1nc(-c2ccc(CO)cc2)oc1-c1ccc(Cl)s1 [Preparation Example 436] | C (A≧20>B≧10>C (minute))
O=C(O)Cc1nc(-c2ccc3ccccc3n2)oc1-c1ccsc1 [Preparation Example 439] | C (A≧20>B≧10>C (minute))
CSc1ccc(-c2nc(CC(=O)O)c(-c3ccsc3)o2)cc1 [Preparation Example 440] | C (A≧20>B≧10>C (minute))
O=C(O)Cc1nc(-c2ccc3ncccc3c2)oc1-c1ccsc1 [Preparation Example 442] | C (A≧20>B≧10>C (minute))
O=C(O)Cc1nc(-c2ccc3c(c2)CCCO3)oc1-c1ccsc1 [Preparation Example 443] | C (A≧20>B≧10>C (minute))
O=C(O)Cc1nc(-c2cc3ccccc3s2)oc1-c1ccc(Cl)c(F)c1 [Preparation Example 447] | B (A≧20>B≧10>C (minute))
CSCc1ccc(-c2nc(CC(=O)O)c(-c3ccc(Cl)s3)o2)cc1 [Preparation Example 448] | C (A≧20>B≧10>C (minute))
CCSc1ccc(-c2nc(CC(=O)O)c(-c3ccc(Cl)s3)o2)cc1 [Preparation Example 449] | B (A≧20>B≧10>C (minute))
Cc1ccc2sc(-c3nc(CC(=O)O)c(-c4ccc(Cl)s4)o3)cc2c1 [Preparation Example 450] | B (A≧20>B≧10>C (minute))
O=C(O)Cc1nc(-c2ccc3c(c2)CCCS3)oc1-c1ccc(Cl)s1 [Preparation Example 456] | C (A≧20>B≧10>C (minute))
CSc1cccc(-c2nc(CC(=O)O)c(-c3ccc(Cl)s3)o2)c1 [Preparation Example 457] | B (A≧20>B≧10>C (minute))
O=C(O)Cc1nc(-c2cc3ccccc3[nH]2)oc1-c1ccc(Cl)s1 [Preparation Example 466] | B (A≧20>B≧10>C (minute))
Cc1cc(-c2nc(CC(=O)O)c(-c3ccc(Cl)s3)o2)sc1C [Preparation Example 467] | A (A≧20>B≧10>C (minute))
O=C(O)Cc1nc(-c2cc3ncccc3s2)oc1-c1ccc(Cl)s1 [Preparation Example 470] | B (A≧20>B≧10>C (minute))
Cn1c(-c2nc(CC(=O)O)c(-c3ccc(Cl)s3)o2)cc2ccccc21 [Preparation Example 472] | A (A≧20>B≧10>C (minute))
Cc1cc(-c2nc(CC(=O)O)c(-c3ccc(Cl)cc3)o2)sc1C [Preparation Example 474] | C (A≧20>B≧10>C (minute))
COc1ccc(-c2nc(CC(=O)O)c(-c3ccc(Cl)cc3)o2)cc1 [Preparation Example 475] | B (A≧20>B≧10>C (minute))
CC(C)c1ncc(-c2nc(CC(=O)O)c(-c3ccsc3)o2)cn1 [Preparation Example 476] | B (A≧20>B≧10>C (minute))
OCc1[nH]c(-c2csc(Cl)c2)nc1-c1cccnc1 [Preparation Example 482, 2-(5-chloro-thiophen-3-yl)-5-hydroxymethyl-4-(3-pyridyl)imidazole] | C (A≧20>B≧10>C (minute))
Cl.O=C(O)Cc1nc(-c2ccc(F)cc2)oc1-c1cccnc1 [Preparation Example 484, 2-(4-fluoro-phenyl)-5-(3-pyridyl)oxazol-4-yl acetic acid hydrochloride] | B (A≧20>B≧10>C (minute))

Structure (SMILES) | 100% inhibition time range
CN(C)c1ncc(-c2nc(-c3cccs3)c(CC(=O)O)o2)cn1 [Preparation Example 505] | B (A≧20>B≧10>C (minute))
CN(C)c1ncc(-c2nc(-c3ccc(Cl)cc3)c(CC(=O)O)o2)cn1 [Preparation Example 513] | C (A≧20>B≧10>C (minute))
COc1ccc(-c2nc(-c3ccc(Cl)s3)c(CC(=O)O)o2)cc1 [Preparation Example 516] | B (A≧20>B≧10>C (minute))
N#Cc1cccc(-c2oc(-c3ccc(F)cc3)nc2CC(=O)O)c1 [Preparation Example 522] | B (A≧20>B≧10>C (minute))
COc1ccc(-c2nc(CC(=O)O)c(-c3ccc(Cl)s3)o2)cc1 [Preparation Example 523] | B (A≧20>B≧10>C (minute))
COc1ccc(-c2nc(CC(=O)O)c(-c3ccc(Cl)c(F)c3)o2)cc1 [Preparation Example 525] | A (A≧20>B≧10>C (minute))
O=C(O)Cc1nc(-c2ccc(N3CCSC3)nc2)oc1-c1ccsc1 [Preparation Example 529] | B (A≧20>B≧10>C (minute))
CCN(CC)c1ccc(-c2nc(CC(=O)O)c(-c3ccsc3)o2)cn1 [Preparation Example 530] | C (A≧20>B≧10>C (minute))
CCc1nc(-c2ccc(F)cc2)oc1-c1cccnc1 [Preparation Example 532] | C (A≧20>B≧10>C (minute))
O=C(O)Cc1sc(-c2ccc(F)cc2)nc1-c1ccc(Cl)s1 [Preparation Example 568] | A (A≧20>B≧10>C (minute))
O=C(O)Cc1sc(-c2cc3ccccc3s2)nc1-c1ccc(Cl)s1 [Preparation Example 569] | A (A≧20>B≧10>C (minute))
COc1ccc(-c2nc(-c3ccc(Cl)s3)c(CC(=O)O)s2)cc1 [Preparation Example 570] | A (A≧20>B≧10>C (minute))
CN(C)c1ccc(-c2nc(-c3ccc(Cl)s3)c(CC(=O)O)s2)cn1 [Preparation Example 571] | A (A≧20>B≧10>C (minute))
O=C(O)Cc1sc(-c2ccc(F)cc2)nc1-c1ccc(Cl)cc1 [Preparation Example 573] | B (A≧20>B≧10>C (minute))
O=C(O)Cc1sc(-c2ccc(F)cc2)nc1-c1cccs1 [Preparation Example 577] | B (A≧20>B≧10>C (minute))
CN(C)c1ncc(-c2nc(-c3cccs3)c(CC(=O)O)s2)cn1 [Preparation Example 580] | C (A≧20>B≧10>C (minute))
COc1ccc(-c2nc(-c3ccc(Cl)c(F)c3)c(CC(=O)O)s2)cc1 [Preparation Example 582] | A (A≧20>B≧10>C (minute))
O=C(O)Cc1sc(-c2cc3ccccc3s2)nc1-c1ccc(Cl)c(F)c1 [Preparation Example 583] | B (A≧20>B≧10>C (minute))
CN(C)c1ccc(-c2nc(-c3ccc(Cl)c(F)c3)c(CC(=O)O)s2)cn1 [Preparation Example 585] | C (A≧20>B≧10>C (minute))
O=C(O)Cc1sc(-c2ccc(Cl)cc2)nc1-c1ccc(Cl)s1 [Preparation Example 588] | C (A≧20>B≧10>C (minute))
CN(C)c1ccc(-c2nc(-c3ccc(Cl)s3)c(CC(=O)O)s2)cc1 [Preparation Example 589] | A (A≧20>B≧10>C (minute))
COc1ccc(-c2nc(-c3ccc(Cl)s3)c(CC(=O)O)s2)cn1 [Preparation Example 591] | B (A≧20>B≧10>C (minute))
CN(C)c1ccc(-c2nc(CC(=O)O)c(-c3ccc(Cl)s3)s2)cn1 [Preparation Example 608] | B (A≧20>B≧10>C (minute))
CN(C)c1ncc(-c2nc(CC(=O)O)c(-c3ccc(Cl)s3)s2)cn1 [Preparation Example 611] | B (A≧20>B≧10>C (minute))
CC(C(=O)O)c1nc(-c2ccc(F)cc2)oc1-c1ccsc1 (stereo not shown) [Preparation Example 613] | C (A≧20>B≧10>C (minute))
O=C(O)Cc1nc(-c2ccc(F)cc2)oc1-c1cccs1 [Preparation Example 614] | C (A≧20>B≧10>C (minute))
